Experimental data from patent publication US9925263B2, “Liquid pharmaceutical formulations for injection comprising procaine and uses thereof” (EAGLE BIOLOGICS, INC., priority 2013, dated 2018).

How the values were obtained:
Sprague-Dawley rats = experiment: Subcutaneous injection toxicity and irritation (Draize evaluation scores); type: in vivo, rat; conditions: 0.5 mL of 0.25 M CSAA subcutaneously, 1 to 3 daily injections
Protocol: Thirty 11-week old Sprague-Dawley rats were separated into 6 groups of 5 rats each (3 saline control groups and 3 CSAA groups). The rats were injected subcutaneously with 0.5 mL of either endotoxin-free phosphate-buffered saline or endotoxin-free 0.25 M CSAA according to the following schedule: One group from each condition was injected once on day 1 and then sacrificed […]; one group from each condition was injected once on day 1 and once on day 2 and then sacrificed 24 hours after the second injection; and one group from each condition was injected once on day 1, once on day 2, and once on day 3, and then sacrificed 24 hours after the third injection.
Clinical observations were recorded for any pharmaco-toxicological signs pre-dose, immediately post-dose, at 1 and 4 hours (±15 minutes) post-dose, and daily thereafter. Irritation, if any, at injection sites was scored using the Draize evaluation scores pre-dose, immediately post-dose, at 1 hour (±15 minutes) post dose, and prior to sacrifice.

biosimilar RITUXAN® = experiment: Viscosity of aqueous solutions of biosimilar RITUXAN® with viscosity-lowering agents; conditions: 202 ± 2 mg/mL RITUXAN; 0.25M agent; 25° C., pH 7.0;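 note: absolute viscosity of aqueous antibody solutions determined by microfluidic viscometry (mVROC chip, 50 micron channel) at several flow rates after 5 min equilibration, mean of at least three readings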
Protocol: All viscosities of well-mixed aqueous mAb solutions were measured using either a mVROC microfluidic viscometer (RheoSense) or a DV2T cone and plate viscometer (Brookfield; “C & P”) after a 5 minute equilibration at 25° C. […] The mVROC viscometer was equipped with an “A” or “B” chip, each manufactured with a 50 micron channel. Typically, 0.10 mL of protein solution was back-loaded into a gastight microlab instrument syringe (Hamilton; 100 μL), affixed to the chip, and measured at multiple flow rates, approximately 20%, 40%, and 60% of the maximum pressure for each chip. […] An average absolute viscosity and standard deviation was then calculated from at least these three measurements. The C & P viscometer was equipped with a CPE40 or CPE52 spindle (cone angle of 0.8° and 3.0°, respectively) and 0.50 mL samples were measured at multiple shear rates between 2 and 400 s^−1. […] An extrapolated zero-shear viscosity was then determined from a plot of dynamic viscosity versus shear rate for the samples measured on a DV2T cone and plate viscometer. The extrapolated zero-shear viscosities reported are the average and standard deviation of at least three measurements.
(§3) Viscosities were measured using a RheoSense mVROC microfluidic viscometer equipped with an “A” or “B” chip.

TYSABRI® = experiment: Viscosity of aqueous solutions of TYSABRI® with viscosity-lowering agents; type: physicochemical; conditions: 0.25M agent, 25° C., pH 7.0
REMICADE® [1] = experiment: Viscosity of aqueous solutions of […]® with viscosity-lowering agents; type: physicochemical
biosimilar AVASTIN® = experiment: Viscosity of aqueous solutions of biosimilar AVASTIN® with viscosity-lowering agents; type: physicochemical
REMICADE® [2] = experiment: Monomer content of […]® solutions by size exclusion chromatography; type: physicochemical; conditions: storage at room temperature, CSAA sample: REMICADE 219 mg/mL, pH 7, 0.25M CSAA
REMICADE® [3] = experiment: Syringe extrusion force of concentrated […]® solutions (Instron); type: physicochemical; conditions: 1 mL BD insulin syringe, 3 mL/min, REMICADE 224-230 mg/mL, 0.25M agent
Protocol: (§1) Following reconstitution, the viscosity of each solution was measured using the microfluidic viscometer as described in previous examples. The solutions were then back-loaded into 1 mL BD insulin syringes with 27, 29, or 31 gauge fixed needles. The force required to extrude the concentrated […]® solutions was then measured using an Instron at a rate of displacement equivalent to a fluid flow rate of 3 mL/min. The expelled solution was collected from the syringe and analyzed by size-exclusion chromatography.

REMICADE® [4] = experiment: Monomer content of […]® solutions by size exclusion chromatography; type: physicochemical; conditions: 0.25M agent
Protocol: Biophysical properties of solutions of […]® formulated with 0.25 M CSAA were assessed over 90 days. Samples of […]® formulated with 0.25 M CSAA were prepared as described in Example 1 above.
as §1

ARZERRA® = experiment: Viscosity of aqueous solutions of ARZERRA® with viscosity-lowering agents; type: physicochemical; conditions: 274 ± 10 mg/mL ARZERRA; 0.25M agent; 25° C., pH 7.0
From the text: (§2) (unless otherwise indicated).

biosimilar ERBITUX® = experiment: Viscosity of aqueous solutions of biosimilar ERBITUX® with viscosity-lowering agents; conditions: for Viscosity / Fold Reduction: pH 7.0, 0.25M agent; for Fold Reduction: vs phosphate buffer
Protocol: All viscosities of well-mixed aqueous mAb solutions were measured using either a mVROC microfluidic viscometer (RheoSense) or a DV2T cone and plate viscometer (Brookfield; “C & P”) after a 5 minute equilibration at 25° C. (unless otherwise indicated). The mVROC viscometer was equipped with an “A” or “B” chip, each manufactured with a 50 micron channel. Typically, 0.10 mL of protein solution was back-loaded into a gastight microlab instrument syringe (Hamilton; 100 μL), affixed to the chip, and measured at multiple flow rates, approximately 20%, 40%, and 60% of the maximum pressure for each chip. […] An average absolute viscosity and standard deviation was then calculated from at least these three measurements. The C & P viscometer was equipped with a CPE40 or CPE52 spindle (cone angle of 0.8° and 3.0°, respectively) and 0.50 mL samples were measured at multiple shear rates between 2 and 400 s^−1. […] An extrapolated zero-shear viscosity was then determined from a plot of dynamic viscosity versus shear rate for the samples measured on a DV2T cone and plate viscometer. The extrapolated zero-shear viscosities reported are the average and standard deviation of at least three measurements.
First, Polysorbate 80 was removed using DETERGENT-OUT® TWEEN® Medi Columns (G-Biosciences). […] The collected protein solution was freeze-dried. The dried protein cakes, containing protein and buffer salts or agent, were reconstituted to a final volume of 0.15-1.3 mL. […] Reported protein concentrations represent the range of all protein samples included in each Table or Figure. Specifically, reported values are the median plus or minus half the range. Extrapolated zero-shear using an experimentally determined extinction coefficient of 1.4 L/g·cm and viscosities reported were measured on a DV2T cone and plate viscometer.
The final concentration of CSAL upon reconstitution in an aqueous CSAL solution ranged from 0.25 M to 0.50 M.
Specifically, 20 mM solutions of the viscosity-lowering agents of interest were used for buffer exchange, and the lyophilized cakes were reconstituted to 0.25 M of each viscosity-lowering agent. […] The sample was first aliquoted. […] The dried protein cakes, containing protein and viscosity-lowering agent (and a negligible amount of buffer salts) were reconstituted to a final volume of approximately 0.10 mL and viscosity-lowering agent concentration as previously described.
First, Polysorbate was removed from the commercially obtained mAb solutions.
Specifically, 20 mM solutions of the salts of interest were used for buffer exchange, and the lyophilized cakes were reconstituted to contain 0.25 M of each agent. Viscosities were measured using either a RheoSense mVROC microfluidic viscometer equipped with an “A” or “B” chip or a DV2T cone and plate viscometer.
Subsequently, the aqueous drug product was purified, buffer exchanged, concentrated, dried, reconstituted, and analyzed as described in the same manner. Viscosities reported were measured on a RheoSense mVROC microfluidic viscometer.

antigen = experiment: Antigen binding, […]®-specific ELISA assay; conditions: storage at room temperature, CSAA sample: REMICADE 219 mg/mL, pH 7, 0.25M CSAA
Protocol: Biophysical properties of solutions of […]® formulated with 0.25 M CSAA were assessed over 90 days. Samples of […]® formulated with 0.25 M CSAA were prepared as described in Example 1 above. […] (Table 20). Additionally, antigen binding of this processed […]® protein was measured with a […]®-specific ELISA assay and no decrease in binding was seen between days 0 and […] (Table 20).

VECTIBIX® = experiment: Viscosity of aqueous solutions of VECTIBIX® with viscosity-lowering agents; type: physicochemical; conditions: 0.25M agent, 25° C., pH 7.0
From the text: as §2

HERCEPTIN® = experiment: Viscosity of aqueous solutions of HERCEPTIN® with viscosity-lowering agents; type: physicochemical; conditions: 0.25M salt, 25° C., pH 7.0
Protocol: All viscosities of well-mixed aqueous mAb solutions were measured using either a mVROC microfluidic viscometer (RheoSense) or a DV2T cone and plate viscometer (Brookfield; “C & P”) after a 5 minute equilibration at 25° C. (unless otherwise indicated). The mVROC viscometer was equipped with an “A” or “B” chip, each manufactured with a 50 micron channel. Typically, 0.10 mL of protein solution was back-loaded into a gastight microlab instrument syringe (Hamilton; 100 μL), affixed to the chip, and measured at multiple flow rates, approximately 20%, 40%, and 60% of the maximum pressure for each chip. […] An average absolute viscosity and standard deviation was then calculated from at least these three measurements. The C & P viscometer was equipped with a CPE40 or CPE52 spindle (cone angle of 0.8° and 3.0°, respectively) and 0.50 mL samples were measured at multiple shear rates between 2 and 400 s^−1. Specifically, samples were measured for 30 seconds each at 22.58, 24.38, 26.25, 28.13, 30, 31.88, 45, 67.5, 90, 112.5, 135, 157.5, 180, 202.5, 247, 270, 292.5, 315, 337.5, 360, 382, 400 s^−1, starting at a shear rate that gave at least 10% torque, and continuing until instrument torque reached 100%. An extrapolated zero-shear viscosity was then determined from a plot of dynamic viscosity versus shear rate for the samples measured on a DV2T cone and plate viscometer. The extrapolated zero-shear viscosities reported are the average and standard deviation of at least three measurements.
as §3
Viscosities reported were measured on a RheoSense mVROC microfluidic viscometer.

In the case of camphorsulfonic acid arginine [CSAA], the “Microscopic examination of injection sites” value (Sprague-Dawley rats; no longer evident by day 4) is reported as “very minor, clinically insignificant, irritative effect”, the “Observed consequences of the injections compared with saline” value (Sprague-Dawley rats; throughout the study) is reported as “macroscopically similar” and the “Edema scores (Draize) at injection sites” value (Sprague-Dawley rats; various time points) is reported as 0-2. The Viscosity (biosimilar RITUXAN®) was 78.4 ± 0.3, the Viscosity (TYSABRI®; 237 ± 4 mg/mL TYSABRI) was 47.1 ± 2.1 cP and the Viscosity (TYSABRI®; 276 ± 8 mg/mL TYSABRI) was 92.9 ± 2.6 cP. For the same substance, the Viscosity (REMICADE® [1]; 128 mg/mL REMICADE, isotonic (0.3 molal) excipient) was 25.8 ± 0.8 cP, the Viscosity reduction (REMICADE® [1]; 0.25M agent vs PB, Table 17) was “about 29 fold” and the Viscosity (REMICADE® [1]; 166 ± 4 mg/mL REMICADE, 0.25M agent, 25° C., pH 7.0) was 19.1 ± 0.2 cP. The Viscosity (REMICADE® [1]; 215 ± 5 mg/mL REMICADE, [CSAA] 0 M, 25° C., pH 7.0) was 1557 ± 22 cP, the Viscosity (REMICADE® [1]; 215 ± 5 mg/mL REMICADE, [CSAA] 0.20 M, 25° C., pH 7.0) was 81.3 ± 1.0 cP and the Viscosity (REMICADE® [1]; 215 ± 5 mg/mL REMICADE, [CSAA] 0.25 M, 25° C., pH 7.0) was 53.7 ± 9.3 cP. The Viscosity (REMICADE® [1]; 215 ± 5 mg/mL REMICADE, [CSAA] 0.35 M, 25° C., pH 7.0) was 38.2 ± 0.9 cP, the Viscosity (REMICADE® [1]; 222 ± 6 mg/mL REMICADE, 0.25M agent, 25° C., pH 7.0) was 53.7 ± 9.3 cP and the Viscosity (biosimilar AVASTIN®; 200 ± 5 mg/mL mAb, pH 7.0, 25° C., [Salt] 0.25 M of anion, C & P viscometer) was 48.5 ± 1.9 cP. The “pH of minimum viscosity and maximum viscosity-lowering effect” value (biosimilar AVASTIN®; 200±9 mg/mL mAb, 0.25 M CSAA, FIG. 3) was ~7, the Viscosity (biosimilar AVASTIN®; 228 ± 5 mg/mL mAb, agent 0.25 M, 25° C., pH 7.0) was 116 ± 2 cP and the “% Monomer” value (REMICADE® [2]; day 0) was 99.9 ± 0.1%. For the same substance, the “% Monomer” value (REMICADE® [2]; day 4) was 97.9 ± 0%, the “% Monomer” value (REMICADE® [2]; day 7) was 100 ± 0% and the “Syringe Force” value (REMICADE® [3]; 27 gauge needle) was 18.4 N. The “Syringe Force” value (REMICADE® [3]; 29 gauge needle) was 24.9 N, the “Syringe Force” value (REMICADE® [3]; 31 gauge needle) was 33.0 N and the “% Monomer” value (REMICADE® [4]; expelled through 27 gauge needle, REMICADE 224-230 mg/mL (per agent)) was 99.5 ± 0.1%. For the same substance, the “% Monomer” value (REMICADE® [4]; expelled through 29 gauge needle, REMICADE 224-230 mg/mL (per agent)) was 99.4 ± 0.2%, the “% Monomer” value (REMICADE® [4]; expelled through 31 gauge needle, REMICADE 224-230 mg/mL (per agent)) was 99.5 ± 0.2% and the “% Monomer” value (REMICADE® [4]; pre-syringe, REMICADE 220-230 mg/mL (per agent)) was 99.7 ± 0.3%. The Viscosity (ARZERRA®) was 125 ± 7 cP, the “pH of viscosity minimum” value (biosimilar ERBITUX®; 0.25 M CSAA, 202±5, 229±5, 253±4 mg/mL mAb, 25° C., FIG. 5) was ~7.0 and the Viscosity (biosimilar ERBITUX®; 222 ± 5 mg/mL mAb, 25° C.) was 52.5 ± 1.0 cP. For the same substance, the Viscosity (biosimilar ERBITUX®; 225 ± 5 mg/mL mAb, 20° C.) was 79.6 ± 0.9 cP, the Viscosity (biosimilar ERBITUX®; 225 ± 5 mg/mL mAb, 25° C.) was 58.0 ± 0.3 cP and the Viscosity (biosimilar ERBITUX®; 225 ± 5 mg/mL mAb, 30° C.) was 46.9 ± 0.6 cP. For the same substance, the “Fold Reduction” value (biosimilar ERBITUX®; 222 ± 5 mg/mL mAb, 25° C.) was 21.5 fold, the “Fold Reduction” value (biosimilar ERBITUX®; 222 ± 5 mg/mL mAb, 25° C., listed as CSA Arginine) was 21.5 fold and the “% binding (normalized to drug product)” value (antigen; day 0) was 88.6 ± 5.2%. For the same substance, the “% binding (normalized to drug product)” value (antigen; day 7) was 114 ± 2.4%, the Viscosity (VECTIBIX®; 264 mg/mL VECTIBIX) was 44.3 ± 2.3 cP and the Viscosity (VECTIBIX®; 233 ± 4 mg/mL VECTIBIX) was 26.2 ± 6.5 cP. For the same substance, the Viscosity (VECTIBIX®; 252 ± 3 mg/mL VECTIBIX) was 27.4 ± 1.2 cP, the Viscosity (VECTIBIX®; 291 ± 3 mg/mL VECTIBIX) was 162 ± 1 cP and the Viscosity (HERCEPTIN®; 216 ± 0 mg/mL HERCEPTIN) was 55.7 ± 2.3 cP. It also gave a Viscosity (HERCEPTIN®; 254 ± 3 mg/mL HERCEPTIN) of 78.0 ± 8.7 cP and a Viscosity (HERCEPTIN®; 270 ± 6 mg/mL HERCEPTIN) of 96.7 ± 4.7 cP.
